Data taken from US10703757B2, “Compounds and methods for CDK8 modulation and indications therefor” (Plexxikon Inc., priority 2016, dated 2020).

How the values were obtained:
[1] = test system: CDK8 (TCF/LEF luciferase reporter in HCT116 cells); experiment: Cell based TCF/LEF reporter assay (HCT116+TCF/LEF luciferase); details: Homo sapiens, HCT-116, 24 h
Method in brief: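 HCT116 cells stably carrying a TCF/LEF-luciferase reporter (endogenous mutant β-catenin), seeded overnight, then exposed to serial compound dilutions for 24 h at 37 °C. Luminescence normalized to CellTiter-Fluor viability signal. % inhibition relative to DMSO and 10 uM CCT251545 controls, with IC50 from nonlinear regression.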

[2] = test system: CDK8 (phosphorylation of STAT1 at serine 727 in A549 cells); experiment: Cell based Phospho-STAT1 assay (IFNγ-stimulated A549 cells, AlphaLISA); details: Homo sapiens, A549, A549 cells, phospho-STAT1 after IFNγ stimulation
Method in brief: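 A549 cells given serial compound dilutions for 1 h at 37 °C, then stimulated with IFNγ at 10 ng/mL final for 30 min. Lysate STAT1 Ser727 phosphorylation measured by AlphaLISA; % inhibition vs stimulated/unstimulated DMSO controls, IC50 by nonlinear regression.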

An IC50 [1] of 1000 to 10000 nM and an IC50 [2] of 1000 to 10000 nM were found for `Cn1cc(C#Cc2cnc3cccc(N4CCC5(CC4)CNC(=O)O5)n23)cn1` [Compound P-0277, 8-(3-((1-methyl-1H-pyrazol-4-yl)ethynyl)imidazo[1,2-a]pyridin-5-yl)-1-oxa-3,8-diazaspiro[4.5]decan-2-one] in this work.

An IC50 [1] of 100 to 1000 nM and an IC50 [2] of 100 to 1000 nM were found for `COc1ccc2cc(-c3cnn4ccnc(C#CC(C)(C)O)c34)ccc2n1` [Compound P-0198, 4-(3-(2-methoxyquinolin-6-yl)pyrazolo[1,5-a]pyrazin-4-yl)-2-methylbut-3-yn-2-ol] in this work.

An IC50 [1] of 0.1 to 100 nM and an IC50 [2] of 0.1 to 100 nM were found for `N#CC1CCC(c2cccn3ncc(-c4ccc(F)cc4)c23)CC1` (stereo not drawn) [Compound P-0139, 4-(3-(4-fluorophenyl)pyrazolo[1,5-a]pyridin-4-yl)cyclohexane-1-carbonitrile] in this work.

An IC50 [1] of 100 to 1000 nM and an IC50 [2] of 100 to 1000 nM were found for `N#CC1CCN(c2cccn3ncc(-c4ccc(OCCCN5CCCCC5)cc4)c23)CC1` [Compound P-0260, 1-(3-(4-(3-(piperidin-1-yl)propoxy)phenyl)pyrazolo[1,5-a]pyridin-4-yl)piperidine-4-carbonitrile] in this work.

An IC50 [1] of 100 to 1000 nM and an IC50 [2] of 100 to 1000 nM were found for `Cn1cc(C#Cc2cnc3cccc(N4CCC5(CC4)NCNC5=O)n23)cn1` [Compound P-0275, 8-(3-((1-methyl-1H-pyrazol-4-yl)ethynyl)imidazo[1,2-a]pyridin-5-yl)-1,3,8-triazaspiro[4.5]decan-4-one] in this work.

An IC50 [1] of 1000 to 10000 nM and an IC50 [2] of 100 to 1000 nM were found for `CNC(=O)C(C)(C)C#Cc1cccn2ncc(-c3ccc(-c4cnn(C)c4)cc3)c12` [Compound P-0296, N,2,2-trimethyl-4-(3-(4-(1-methyl-1H-pyrazol-4-yl)phenyl)pyrazolo[1,5-a]pyridin-4-yl)but-3-ynamide] in this work.

An IC50 [1] of 0.1 to 100 nM and an IC50 [2] of 0.1 to 100 nM were found for `Cc1nnc(-c2ccc(-c3cnn4cccc(C5CCC(C#N)CC5)c34)cc2)o1` (stereo not drawn) [Compound P-0140, 4-(3-(4-(5-methyl-1,3,4-oxadiazol-2-yl)phenyl)pyrazolo[1,5-a]pyridin-4-yl)cyclohexane-1-carbonitrile] in this work.

An IC50 [1] of 0.1 to 100 nM and an IC50 [2] of 0.1 to 100 nM were found for `N#CC1CCC(c2nccn3ncc(-c4ccc(-c5cnn(CC6(C#N)CC6)c5)cc4)c23)CC1` (stereo not drawn) [Compound P-0050, (1s,4s)-4-(3-(4-(1-((1-cyanocyclopropyl)methyl)-1H-pyrazol-4-yl)phenyl)pyrazolo[1,5-a]pyrazin-4-yl)cyclohexane-1-carbonitrile] in this work.

An IC50 [1] of 0.1 to 100 nM and an IC50 [2] of 0.1 to 100 nM were found for `N#CCCn1cc(-c2ccc(-c3cnn4ccnc(C5CCC(C#N)CC5)c34)cc2)cn1` (stereo not drawn) [Compound P-0098, 4-(3-(4-(1-(2-cyanoethyl)-1H-pyrazol-4-yl)phenyl)pyrazolo[1,5-a]pyrazin-4-yl)cyclohexane-1-carbonitrile] in this work.

An IC50 [1] of 0.1 to 100 nM and an IC50 [2] of 0.1 to 100 nM were found for `CC(C)(C#Cc1cccn2ncc(-c3ccc(-c4cnn(CCS(C)(=O)=O)c4)cc3)c12)C(N)=O` [Compound P-0464, 2,2-dimethyl-4-(3-(4-(1-(2-(methylsulfonyl)ethyl)-1H-pyrazol-4-yl)phenyl)pyrazolo[1,5-a]pyridin-4-yl)but-3-ynamide] in this work.

An IC50 [1] of 0.1 to 100 nM and an IC50 [2] of 0.1 to 100 nM were found for `Cc1ccc2cc(-c3cnn4cccc(N5CCC6(CCNC6=O)CC5)c34)ccc2n1` [Compound P-0168, 8-(3-(2-methylquinolin-6-yl)pyrazolo[1,5-a]pyridin-4-yl)-2,8-diazaspiro[4.5]decan-1-one] in this work.

An IC50 [1] of 100 to 1000 nM and an IC50 [2] of 100 to 1000 nM were found for `Cn1cc(-c2ccc(-c3cnn4cccc(C5=CCC(C(=O)O)CC5)c34)cc2)cn1` (stereo not drawn) [Compound P-0444, 4-(3-(4-(1-methyl-1H-pyrazol-4-yl)phenyl)pyrazolo[1,5-a]pyridin-4-yl)cyclohex-3-ene-1-carboxylic acid] in this work.

An IC50 [1] of 0.1 to 100 nM and an IC50 [2] of 0.1 to 100 nM were found for `Cn1ncc2cc(-c3cnn4ccnc(C5=CCC(C#N)CC5)c34)ccc21` (stereo not drawn) [Compound P-0324, 4-(3-(1-methyl-1H-indazol-5-yl)pyrazolo[1,5-a]pyrazin-4-yl)cyclohex-3-ene-1-carbonitrile] in this work.

An IC50 [1] of 0.1 to 100 nM and an IC50 [2] of 0.1 to 100 nM were found for `CC(C)(C#N)Cn1cc(-c2ccc(-c3cnn4ccnc(C5CCC(C#N)CC5)c34)cc2)cn1` (stereo not drawn) [Compound P-0046, (1s,4s)-4-(3-(4-(1-(2-cyano-2-methylpropyl)-1H-pyrazol-4-yl)phenyl)pyrazolo[1,5-a]pyrazin-4-yl)cyclohexane-1-carbonitrile] in this work.

An IC50 [1] of 0.1 to 100 nM and an IC50 [2] of 0.1 to 100 nM were found for `N#CC1CC=C(c2cccn3ncc(-c4ccc5nccnc5c4)c23)CC1` (stereo not drawn) [Compound P-0122, 4-(3-(quinoxalin-6-yl)pyrazolo[1,5-a]pyridin-4-yl)cyclohex-3-ene-1-carbonitrile] in this work.

An IC50 [1] of 0.1 to 100 nM and an IC50 [2] of 0.1 to 100 nM were found for `CNC(=O)c1ccc2cc(-c3cnn4cccc(C#CC(C)(C)O)c34)ccc2c1` [Compound P-0222, 6-(4-(3-hydroxy-3-methylbut-1-yn-1-yl)pyrazolo[1,5-a]pyridin-3-yl)-N-methyl-2-naphthamide] in this work.

An IC50 [1] of 100 to 1000 nM and an IC50 [2] of 0.1 to 100 nM were found for `Cn1cc(-c2ccc(-c3cnn4cccc(C#C[C@@](C)(O)c5ccccc5)c34)cc2)cn1` [Compound P-0246, (S)-4-(3-(4-(1-methyl-1H-pyrazol-4-yl)phenyl)pyrazolo[1,5-a]pyridin-4-yl)-2-phenylbut-3-yn-2-ol] in this work.

An IC50 [1] of 0.1 to 100 nM and an IC50 [2] of 0.1 to 100 nM were found for `Cn1cc(-c2ccc(-c3cnc4[nH]ccc4c3N3CCC(C#N)CC3)cc2)cn1` [Compound P-0421, 1-(5-(4-(1-methyl-1H-pyrazol-4-yl)phenyl)-1H-pyrrolo[2,3-b]pyridin-4-yl)piperidine-4-carbonitrile] in this work.

An IC50 [1] of 0.1 to 100 nM and an IC50 [2] of 0.1 to 100 nM were found for `CS(=O)(=O)CCn1cc(-c2ccc(-c3cnn4ccnc(C5=CCC(C#N)CC5)c34)cc2)cn1` (stereo not drawn) [Compound P-0033, 4-(3-(4-(1-(2-(methylsulfonyl)ethyl)-1H-pyrazol-4-yl)phenyl)pyrazolo[1,5-a]pyrazin-4-yl)cyclohex-3-ene-1-carbonitrile] in this work.

An IC50 [1] of 0.1 to 100 nM and an IC50 [2] of 0.1 to 100 nM were found for `Cn1cc(-c2ccc(-c3cnn4cccc(N5CCC6(CCNC6=O)CC5)c34)cc2)cn1` [Compound P-0170, 8-(3-(4-(1-methyl-1H-pyrazol-4-yl)phenyl)pyrazolo[1,5-a]pyridin-4-yl)-2,8-diazaspiro[4.5]decan-1-one] in this work.

An IC50 [1] of 0.1 to 100 nM and an IC50 [2] of 0.1 to 100 nM were found for `CC(C)Cn1cc(-c2ccc(-c3cnn4ccnc(C5=CCC(C#N)CC5)c34)cc2)cn1` (stereo not drawn) [Compound P-0035, 4-(3-(4-(1-isobutyl-1H-pyrazol-4-yl)phenyl)pyrazolo[1,5-a]pyrazin-4-yl)cyclohex-3-ene-1-carbonitrile] in this work.

An IC50 [1] of 0.1 to 100 nM and an IC50 [2] of 0.1 to 100 nM were found for `CS(=O)(=O)Nc1ccc2cc(-c3cnn4cccc(C5=CCC(C#N)CC5)c34)ccc2n1` (stereo not drawn) [Compound P-0150, N-(6-(4-(4-cyanocyclohex-1-en-1-yl)pyrazolo[1,5-a]pyridin-3-yl)quinolin-2-yl)methanesulfonamide] in this work.

An IC50 [1] of 100 to 1000 nM and an IC50 [2] of 100 to 1000 nM were found for `COc1ccc(-c2cnn3ccnc(C4=CCC(C#N)CC4)c23)cn1` (stereo not drawn) [Compound P-0087, 4-(3-(6-methoxypyridin-3-yl)pyrazolo[1,5-a]pyrazin-4-yl)cyclohex-3-ene-1-carbonitrile] in this work.

An IC50 [1] of 100 to 1000 nM and an IC50 [2] of 100 to 1000 nM were found for `N#CC1CCN(c2cccn3ncc(-c4ccc(C(=O)N5CCCC5)cc4)c23)CC1` [Compound P-0257, 1-(3-(4-(pyrrolidine-1-carbonyl)phenyl)pyrazolo[1,5-a]pyridin-4-yl)piperidine-4-carbonitrile] in this work.
